Measurements as given in patent US20100144683A1, “METHODS FOR GENERATING MAMMALIAN MODELS OF ATOPIC DISEASES, AND SCREENING FOR THEIR TREATMENT” (ASSOCIATION POUR LA RECHERCHE A L'IGBMC (ARI), priority 2006, published 2010).

Tests used:
[1] = test system: TSLP; assay: TSLP RNA level (Q-PCR) in skin and organs after topical application of NR agonists; type: in vivo, mouse; conditions: for increase in TSLP transcripts at D5 / effect on TSLP expression (Q-PCR): 4 nmoles in ethanol topically on whole ears of CD1 WT mice, D1 to D4, Q-PCR on day 5
Method: Four nmoles of ligands dissolved in ethanol were topically applied to whole ears of 6-8-week-old female CD1 wildtype (WT) mice for 4 consecutive days (D1 to D4), and TSLP RNA levels were determined on day 5.
1α,25-(OH)2D3, or MC903 and ethanol (vehicle) were applied to WT mouse right and left ears, respectively. Two shaved areas (1 cm^2 each) of dorsal skin were also treated with MC903 or ethanol.

[2] = Calcemia and overall health upon topical application; type: in vivo; conditions: 4 nmoles topically on ears, 4 consecutive days
Method: 1α,25-(OH)2D3, or MC903 and ethanol (vehicle) were applied to WT mouse right and left ears, respectively. Two shaved areas (1 cm^2 each) of dorsal skin were also treated with MC903 or ethanol. […]

[3] = test system: ears of CD1 wildtype (WT) mice; assay: AD-like phenotype upon long-term ear topical treatment (appearance, histology, IHC); type: in vivo, mouse
Source text: White arrows point to the dermal/epidermal junction. FIGS. 2a and b show the ear appearance at day 17 after ethanol and MC903 treatment, respectively. FIGS. 2c and d show hematoxylin and eosin-stained (HE) ear sections of ethanol- and MC903-treated mice at day 17, respectively. Eosinophil-selective cytoplasmic red staining is pointed by arrows in the inset of (d). FIG. 2 u show hematoxylin and eosin-stained (HE) ear sections of ethanol- and 1α,25(OH)2D3 treated mice every second day, at a dose of 0.25 nmole, at day 18 (D18). FIGS. 2 e to n show the result of IHC performed on ear sections from ethanol- or MC903-treated mice at D17, with antibodies against GR1 (e and f), CD3 (g and h), CD4 (i and j), CD8 (k and l) and CD11c (m and n). Yellow color corresponds to staining of antibodies, whereas blue corresponds to DAPI staining of nuclei. FIGS. 2 o and p show the Toluidin blue (TB)-staining of ear sections. Red arrows point to one of the mast cells with intense blue color in the dermis.

[4] = test system: TSLP; assay: TSLP RNA level (Q-PCR) in skin and organs after topical application of NR agonists; type: in vivo, mouse; conditions: for TSLP RNA levels in ears at D18: 0.25 nmole per ear every second day, WT mice; for dose dependence of TSLP transcripts: increasing doses (MC903: 0.4, 1 or 4 nmoles per ear)
[5] = test system: MC903-induced TSLP expression; assay: RAR antagonist on MC903-induced TSLP RNA in ears; type: in vivo, mouse; conditions: BMS493 2.5 nmoles with MC903 1.25 nmoles, daily on ears of CD1 WT mice, D3
Method: The RAR antagonist BMS493 (2.5 nmoles) with ethanol and with or without MC903 (1.25 nmoles) was daily topically-applied to ears of 6-8-week-old female CD1 (WT) mice. TSLP RNA levels in the ears were measured at D3.

[6] = test system: ears of CD1 wildtype (WT) mice; assay: AD-like phenotype upon long-term ear topical treatment (appearance, histology, IHC); type: in vivo, mouse; conditions: topical treatment with the RAR agonist alone

C=C1/C(=C\C=C2/CCC[C@]3(C)[C@@H]([C@H](C)CCCC(C)(C)O)CC[C@@H]23)C[C@@H](O)C[C@@H]1O [1α,25-(OH)2D3, 1,25-Dihydroxyvitamin D3]
increase in TSLP transcripts at D5 [1]: > 300 fold
hypercalcemia and survival [2]: hypercalcemia and death of the mice
ear appearance ([3]; MC903 4 nmoles daily or 1α,25(OH)2D3 0.25 nmole every second day, from D5, D17): reddening and swelling, that worsened with time
ear histology (hematoxylin/eosin) ([3]; MC903 4 nmoles daily, D17, 1α,25-(OH)2D3 0.25 nmole every other day, D18): inflammatory infiltrate comprising CD4+ T lymphocytes, dendritic cells, eosinophils and mast cells
TSLP RNA levels in ears at D18 [4]: significantly induced
TSLP RNA levels in ears at D18 ([4]; listed as 1α,25(OH)2D3): increased

C[C@H](CCCC(C)(C)O)[C@H]1CC[C@H]2[C@@H]3CC=C4C[C@@H](O)CC[C@]4(C)[C@H]3CC[C@]12C [25-hydroxycholesterol]
effect on TSLP expression (Q-PCR) [1]: no effect

CC1(C)CC=C(C#Cc2ccccc2)c2cc(/C=C/c3ccc(C(=O)O)cc3)ccc21 [BMS493, (E)-4-[2-[5,6-Dihydro-5,5-dimethyl-8-(2-phenylethynyl)naphthalene-2-yl]ethen-1-yl]benzoic Acid]
effect on MC903-induced TSLP expression [5]: down-regulates

CC1(C)CCC(C)(C)c2cc(C3(c4ccc(C(=O)O)cc4)OCCO3)ccc21 [BMS649]
effect on TSLP expression (Q-PCR) [1]: no effect

CC1(C)CCC(C)(C)c2cc(C(O)C(=O)Nc3ccc(C(=O)O)cc3F)ccc21 (centres unmarked) [BMS961, R- and S-3-fluoro-4-[2-hydroxy-2-(5,5,8,8-tetramethyl-5,6,7,8,-tetrahydro-naphthalen-2-yl)-acetulamino]-benzoic acid]
increase in TSLP transcripts at D5 [1]: 5 fold
TSLP transcripts upon application on mouse ear skin ([1]; topical application on mouse ear skin): significant increase
AD-like phenotype upon topical treatment on its own [6]: too low to trigger an overt AD-like phenotype

C=C1/C(=C\C=C2/CCC[C@]3(C)[C@@H]([C@H](C)/C=C/C=C/C(O)(CC)CC)CC[C@@H]23)C[C@@H](O)C[C@@H]1O [EB1089, 1(S),3(R)-dihydroxy-20(R)-(5′-ethyl-5′-hydroxy-hepta-1′(E),3′(E)-dien-1′-yl)-9,10-secopregna-5(Z),7(E),10(19)-triene]
dose dependence of TSLP transcripts [4]: similarly observed

CC(C)OC(=O)C(C)(C)Oc1ccc(C(=O)c2ccc(Cl)cc2)cc1 [Fenofibrate]
effect on TSLP expression (Q-PCR) [1]: no effect

Cc1cc(SCc2sc(-c3ccc(C(F)(F)F)cc3)nc2C)ccc1OCC(=O)O [GW501516]
effect on TSLP expression (Q-PCR) [1]: no effect

C=C1/C(=C\C=C2/CCC[C@]3(C)[C@@H]([C@@H](C)OCCCC(O)(CC)CC)CC[C@@H]23)C[C@@H](O)C[C@@H]1O [KH1060, 1α,25-(OH),-20-epi-22-oxa-24,26,27-trishomovitamin D]
dose dependence of TSLP transcripts [4]: similarly observed

CN(CCOc1ccc(CC2SC(=O)NC2=O)cc1)c1ccccn1 (centres unmarked) [Rosiglitazone]
effect on TSLP expression (Q-PCR) [1]: no effect
